Read-outs that look alike come from different tables or passages of the source.

This note sets out measurements from US20150307532A1, “THIENOPYRIMIDINE INHIBITORS OF […] AND/OR […] PYROPHOSPHATE SYNTHASE” (THE ROYAL INSTITUTION FOR THE ADVANCEMENT OF …, priority 2012, published 2015).

The subject of data set [1] is total Tau (T-Tau). Nature of the data set: Total Tau ELISA (Innotest Total Tau, hTau assay) in human immortalized neurons. The note with it: compound 100 nM, 24 hours, SH-SY5Y cell homogenate. The format is cell-based. The protocol: (§1) The commercially available INNOTEST® PHOSPHO-TAU(181P) solid-phase enzyme immunoassay was used. In this assay, the phosphorylated Tau protein or fragments are captured by a first monoclonal human specific antibody, HT7 (IgG1). Human immortalized neurons were treated with various compounds at […] and incubated with biotinylated AT270 (IgG1) monoclonal. This antigen-antibody complex is then detected by a peroxidase-labeled streptavidin. After addition of substrate working solution, samples develop a color. The color intensity is a measure for the amount of phosphorylated Tau protein in the sample. This assay has been standardized in numerous research laboratories (for examples see Vanderstichele, H. et al. Alzheimer's & Dementia 2012, 8, 65-73; Zimmermann, R. et al. Journal of Alzheimer's Diseases 2011, 25, 739-745; Blennow, K. et al. Molecular and Chemical Neuropathology 1995, 26, 231-245). Human neuroblastomas SH-SY5Y cell line were used and purchased at the ATCC under the label CRL2266. All compounds were tested in three fixed concentrations at 100 nM, 1 μM and 100 μM in duplicates. We used the 6 well culture plates to grown a significant density of neurons (330,000 cells/well). Cells were grown to 80% confluence in MEM-F12 media with 10% fetal bovine serum, the exposed for 24 hours to the different inhibitors. After one day, the supernatant was removed (and saved at −20° C.). The cell are washed repeatedly in PBS buffer and saved at −80° C. ELISA assays were performed on neuronal cell homogenates using a standardized assay developed by INNOGENETICS called Innotest Total Tau also refers to as the hTau assay and Innotest phospho-Tau (P181). Assays were performed as per manufacturer protocol. The concentration units are in pg of P-Tau per μg of total protein in the cell homogenate. […]; compounds which cause stress or damage to the neurons stimulate the production of P-Tau protein. Lactate dehydrogenase (LDH) activity was measured using a commercial kit; the maximum toxicity was based on % lactic acid dehydrogenases activity in the medium; the control was set at zero.

The target in data set [2] is T1, human recombinant FPPS (Homo sapiens, UniProt P14324).
T1 sequence (P14324 1-419): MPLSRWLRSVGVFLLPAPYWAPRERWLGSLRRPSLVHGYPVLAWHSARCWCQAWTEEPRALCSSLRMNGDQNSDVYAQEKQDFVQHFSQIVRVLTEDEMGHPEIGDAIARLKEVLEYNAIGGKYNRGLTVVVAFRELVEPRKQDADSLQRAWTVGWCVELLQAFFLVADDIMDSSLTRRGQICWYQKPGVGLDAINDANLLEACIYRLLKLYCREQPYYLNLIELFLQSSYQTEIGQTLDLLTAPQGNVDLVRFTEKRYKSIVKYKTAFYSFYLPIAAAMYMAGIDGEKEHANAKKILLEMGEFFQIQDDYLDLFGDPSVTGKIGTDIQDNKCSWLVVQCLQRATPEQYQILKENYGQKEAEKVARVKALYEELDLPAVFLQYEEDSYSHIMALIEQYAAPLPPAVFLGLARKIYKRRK
Procedure: In vitro Enzymatic Inhibition Assay for hFPPS: In vitro sensitized inhibition assay for hFPPS (M2):
For assays run with a 10 min pre-incubation period, the enzyme and inhibitor were incubated in the assay buffer in a volume of 80 μL at 37° C. for 10 min. After 10 min, the substrates were added to start the reaction and also bring the inhibitor and substrate to the desired final concentrations. After addition of all substrates, all assays were incubated at 37° C. for 8 min. Assays were terminated by the addition of 200 μL of HCl/methanol (1:4) and incubated for 10 min at 37° C. The assay mixture was then extracted with 700 μL of ligroin (in order to separate reaction products from unused substrate), dried through a plug of anhydrous MgSO4 and 300 μL of the ligroin phase was combined with 8 mL of scintillation cocktail. The radioactivity was then counted using a Beckman Coulter LS6500 liquid scintillation counter.

Data set [3] has as its system Human neuroblastomas SH-SY5Y cell line. Nature of the data set: Lactate dehydrogenase (LDH) activity / toxicity in neurons. The format is cell-based. The protocol:
as §1

In data set [4] the test system is phosphorylated Tau protein. Nature of the data set: Phospho-Tau bioassay (INNOTEST PHOSPHO-TAU(181P) ELISA) in human immortalized neurons. The format is cell-based. The note with it: compound 100 nM; for P-Tau: 24 hours, SH-SY5Y cell homogenate; for Ratio P/T: P-Tau/T-Tau.
Where [5] appears, read: read-out: IC50 (μM) in hFPPS Method 2, ~1 nM hFPPS, 0.2 μM GPP and IPP.

As to `O=P(O)(O)CNc1ncnc2sc(-c3ccc(C4CC4)cc3)cc12` [Example 16-1, (((6-(4-cyclopropylphenyl)thieno[2,3-d]pyrimidin-4-yl)amino)methyl)phosphonic acid], the T-Tau in data set [1] is 47 pg/µg protein. Also, the IC50 in data set [2] stood at 29 µM. Moreover, in data set [3] (human, 24 h, 100 nM), the LDH is 7%. Further, in data set [4], the P-Tau is reported as 0.35 pg of P-Tau per μg of total protein and the “Ratio P/T” value came out at 0.007.
Regarding `Cc1ccc(-c2sc3ncnc(NCP(=O)(O)O)c3c2N)cc1Cl` [Example 41-1], in data set [2], the IC50 amounted to 10 µM.
For the compound `Cc1ccc(-c2cc3c(NCP(=O)(O)O)ncnc3s2)cc1` [Example 18-1, (((6-(p-tolyl)thieno[2,3-d]pyrimidin-4-yl)amino)methyl)phosphonic acid], in data set [2] (setting [5]), the IC50 is 4.5 µM.
Turning to `Cc1ccc(-c2cc3c(N[C@H](Cc4ccccc4)C(=O)O)ncnc3s2)cc1` [Example 33-1], the IC50 in data set [2] came to 40 µM.
In the case of `Cc1ccc(-c2cc3c(NC(c4ccccc4)P(=O)(O)O)ncnc3s2)cc1Cl` (stereo not drawn) [Example 37-1, (((6-(3-chloro-4-methylphenyl)thieno[2,3-d]pyrimidin-4-yl)amino)(phenyl)methyl)phosphonic acid], in data set [2], the IC50 was determined as 1.3 µM.
In the case of `O=P(O)(O)C(Nc1ncnc2sc(-c3ccc(C4CC4(F)F)cc3)cc12)P(=O)(O)O` (stereo not drawn) [Example 13-1, (((6-(4-(2,2-difluorocyclopropyl)phenyl)thieno[2,3-d]pyrimidin-4-yl)amino)methylene)diphosphonic acid], the IC50 in data set [2] (setting [5]) came out at 0.011 µM.
In the case of `O=P(O)(O)C(O)(Cn1ccnc1)P(=O)(O)O` [Zoledronic acid], the T-Tau in data set [1] amounted to 34 pg/µg protein. In addition, the “toxicity to neurons” value in data set [3] is “highly toxic”. Besides, in data set [3] (human, 24 h, 100 nM), the LDH stood at 60%. Also, in data set [4], the P-Tau is on record as 0.19 pg of P-Tau per μg of total protein.
For `O=P(O)(O)C(O)(Cc1cccnc1)P(=O)(O)O` [Risedronic acid], the T-Tau in data set [1] amounted to 38 pg/µg protein. In addition, the Toxicity result in data set [3] (compound 100 nM, based on LDH) is recorded as “high”. Further, the LDH in data set [3] (compound 100 nM, % lactic acid dehydrogenases activity in the medium, control set at zero) was 60%. In addition, the “toxicity to neurons” value in data set [3] (human immortalized neurons) is “highly toxic”. In addition, in data set [4], the P-Tau is 0.17 pg of P-Tau per μg of total protein.
On to `COc1ccc(-c2cc3c(NC(P(=O)(O)O)P(=O)(O)O)ncnc3s2)cc1` [Example 8-1, (((6-(4-methoxyphenyl)thieno[2,3-d]pyrimidin-4-yl)amino)methylene)diphosphonic acid], for which the IC50 in data set [2] (setting [5]) came to 0.015 µM.
As to `O=P(O)(O)C(Nc1ncnc2sc(-c3ccc(C(F)(F)F)cc3)cc12)P(=O)(O)O` [Example 6-1, (((6-(4-(trifluoromethyl)phenyl)thieno[2,3-d]pyrimidin-4-yl)amino)methylene)diphosphonic acid], in data set [2] (setting [5]), the IC50 worked out at 0.021 µM.
Turning to `O=C(O)Cn1c(C(=O)O)cc2ccc3ccccc3c21` [Inhibitor 1], in data set [1], the T-Tau worked out at 65 pg/µg protein. The LDH in data set [3] (human, 24 h, 100 nM) worked out at 3%. In addition, in data set [4], the P-Tau is given as 0.30 pg of P-Tau per μg of total protein.
On to `O=P(O)(O)C(Nc1ncnc2sc(-c3ccc(C4CC4)cc3)cc12)P(=O)(O)O` [Example 7-1, (((6-(4-cyclopropylphenyl)thieno[2,3-d]pyrimidin-4-yl)amino)methylene)diphosphonic acid], for which the IC50 in data set [2] was found to be 0.036 µM.
On the same count and under the same terms, then `Cc1ccc(-c2sc3ncnc(NCP(=O)(O)O)c3c2N)cc1` [Example 21-1, (((5-amino-6-(p-tolyl)thieno[2,3-d]pyrimidin-4-yl)amino)methyl)phosphonic acid], with 2.7 µM.
As to `Cc1ccc(-c2cc3c(NC(P(=O)(O)O)P(=O)(O)O)ncnc3s2)cc1` [Example 5-1], in data set [2] (setting [5]), the IC50 is 0.022 µM.
As for `O=P(O)(O)C(Nc1ncnc2sc(-c3ccc(OC4CC4)cc3)cc12)P(=O)(O)O` [Example 11-1, (((6-(4-cyclopropoxyphenyl)thieno[2,3-d]pyrimidin-4-yl)amino)methylene)diphosphonic acid], in data set [1], the T-Tau is 31 pg/µg protein. The LDH in data set [3] (human, 24 h, 100 nM) stood at 0%. Moreover, in data set [4], the P-Tau is 0.30 pg of P-Tau per μg of total protein and the “Ratio P/T” value stood at 0.007.
Take `O=P(O)(O)C(Nc1ncnc2sc(-c3ccc4ccccc4c3)cc12)P(=O)(O)O` [Example 10-1]: in data set [2] (setting [5]), the IC50 is 0.063 µM.
As to `Cc1ccc(-c2cc3c(NC(c4ccccc4)P(=O)(O)O)ncnc3s2)cc1` (stereo not drawn) [Example 36-1, (phenyl((6-(p-tolyl)thieno[2,3-d]pyrimidin-4-yl)amino)methyl)phosphonic acid], in data set [2], the IC50 turned out to be 4.2 µM.
